Assay results from patent publication US20220175798A1, “COMPOSITIONS COMPRISING OXYGENATED CHOLESTEROL SULFATE AND AT LEAST ONE OF POLYALKYLENE GLYCOL, CARBOXYMETHYL CELLULOSE AND POLYOXYLGLYCERIDE” (Durect Corporation, priority 2016, published 2022).

Columns and labels:
[1] = system: non-alcoholic steatohepatitis (NASH); assay: Accelerated mouse model of NASH (STZ + HFD), Part II; type: in vivo, C57BL/6J mice; conditions: 50 mg/kg daily oral
Protocol: (§1) The subjects for the study were 36 C57BL/6J male mice. Mice were given 200 μg streptozotocin (STZ) at 2 days after birth and fed high fat diet (HFD) starting at four weeks of age until the remainder of the study (13 weeks of age). This intervention early in their lives induces accelerated progression of non-alcoholic steatohepatitis (NASH) and has been thoroughly characterized.
The Vehicle was a solution of 0.5% (w/v) CMC and 0.05% (v/v) Tween-80 in water. Powdered 25HC3 S was constituted into the Vehicle solution to result in drug concentration of 10 mg/mL. The suspensions were homogenized for approximately 5 minutes (with 10 second breaks every 30-40 seconds) and swirled before dosing to maintain homogeneity. The formulated test article was prepared weekly and kept at room temperature.
Mice were divided into treatment groups (N=10/group) and dosed daily by oral gavage with water (control), Vehicle or 50 mg/kg 25HC3 S starting from Week 9 to Week 13 (28 days treatment).

[2] = system: APAP-induced liver failure; assay: Acetaminophen (APAP)-induced model of acute liver failure; type: in vivo, C57BL/6J mice; conditions: 25 mg/kg oral gavage 1 hr (and 24 hr) post APAP 300 mg/kg; vs vehicle
Protocol: The subjects for the study were 52 C57BL/6J male mice (12 weeks of age; 27.4-40 g). […] All animals were in healthy condition and admitted to the study.
(§2) The Vehicle was a solution of 0.5% (w/v) CMC and 0.05% (v/v) Tween-80 in water. Powdered 25HC3 S was constituted into the vehicle solution to result in a drug concentration of 3 mg/mL. The suspensions were homogenized at 20,000 rotations per minute (rpm) for approximately 5 minutes after being combined, with 10 second breaks every 30-40 seconds and swirled before dosing to maintain homogeneity. The formulated test article was prepared weekly and kept at room temperature.
Two groups of mice (N=14/group) were challenged with 300 mg/kg APAP by oral gavage. The two groups were treated with one dose of vehicle or 25HC3 S (25 mg/kg) by oral gavage at a dose volume of 8.33 mL/kg one hour post-APAP challenge. Half of the mice in each group (N=6-7/group) were given a second dose of vehicle or 25HC3 S (25 mg/kg) at 24 hour post-APAP delivery in addition to the first dose at 1 hr. Cohort A mice (single dose) were sacrificed 24 hrs post APAP-challenge and Cohort B mice (two doses) were sacrificed at 48 hours post APAP-challenge. A parallel set of untreated age-matched mice (no APAP and vehicle administered by oral gavage) were also sacrificed at both time points to compare baseline measurements (N=6/time point; 12 in total). […]

[3] = Stress study of suspension formulation with hydrogen peroxide; type: physicochemical; conditions: stress study of 25HC3S suspension formulation with hydrogen peroxide
Text: L-Methionine was initially added as an antioxidant. […] Therefore, L-Methionine was removed from the preferred suspension formulation. 25HC3S in Vehicle PEG 3350 (without L-Methionine) was used for further syringeability study (Studies #12 and 13).

[4] = system: bile duct ligation cholestasis; assay: Bile duct ligated (BDL) rat model of cholestasis; type: in vivo, CD1 rats
Protocol: The subjects for the study were CD1 male rats (8 weeks of age, 200-225 g). Rats underwent BDL surgery, where the extrahepatic biliary tract was tightly ligated twice with sutures, then cut between the two ligations. A sham group (N=5/group) was also included in a subset of the studies described. […] The Vehicle was a solution of 0.5% (w/v) CMC and 0.05% (v/v) Tween-80 in water. Powdered 25HC3 S was constituted into the Vehicle solution to result in drug concentrations of 0.833 to 5 mg/mL. The suspensions were homogenized for approximately 5 minutes being combined, with 10 second breaks every 30-40 seconds and swirled before dosing to maintain homogeneity. The formulated test article was prepared weekly and kept at room temperature. […] were divided into treatment groups (N=8-10/group) and dosed daily or every 3 days for 9 days by oral gavage. 5, 10, 30 or 60 mg/kg 25HC3S or Vehicle was given starting one day (Day 1) after BDL surgery. On Day 10, serum was collected after an overnight fast and measured for serum biochemistry.

[5] = system: non-alcoholic steatohepatitis (NASH); assay: Accelerated mouse model of NASH (STZ + HFD), Part I; type: in vivo, C57BL/6J mice; conditions: vs vehicle
Protocol: as §1, with “30” for “36”, “given a” for “given”, “ug” for “μg”, “(9” for “(13”, “highly” for “thoroughly”
as §2, with “in” for “in a”, “drug concentrations” for “drug concentration”, “of 5 and 10” for “of 3”, “homogenized” for “homogenized at 20,000 rotations per minute (rpm)”, “minutes” for “minutes after”
Mice were divided into treatment groups (N=10/group) and dosed daily by oral gavage with vehicle, 10 mg/kg or 50 mg/kg 25HC3S starting from Week 5 to Week 9 (28 days treatment).

[6] = Week 9 to 13, vs Vehicle, p<0.05
[7] = daily oral 10 or 30 mg/kg (follow-up study)
[8] = 10 mg/kg daily oral gavage 28 days

C[C@H](CCCC(C)(C)O)[C@H]1CC[C@H]2[C@@H]3CC=C4C[C@@H](OS(=O)(=O)[O-])CC[C@]4(C)[C@H]3CC[C@]12C.[Na+] [Formulation 25HC3S, 5-cholesten-3, 25-diol, 3-sulfate]
NAS (NAFLD activity score) ([1]; Week 9 to 13, vs Vehicle): trend of reduction | hepatocyte ballooning [1, 6]: significant reduction | percent area of fibrosis (Sirius red-positive area) [1, 6]: significantly decreased | extent of fibrosis ([1]; compared to baseline Week 9 mice): trended lower | serum chemistry parameters (ALT, AST, ALK, LDH, BUN, glucose) [2]: no effect | oxidative degradation [3]: oxidative degradation did not occur | body weight and other serum chemistry measures ([4]; daily oral 5 mg/kg): little or no differences | Body temperature on Day 9 ([4]; daily oral 5 mg/kg, vs Vehicle): significantly improved | spleen-to-body weight ratio ([4]; daily oral 5 mg/kg, vs Vehicle): significantly improved | body weight gain after surgery ([4]; daily oral 30 mg/kg (pilot study)): significantly improved | body weight gain after surgery ([4]; daily oral 60 mg/kg (pilot study)): modest increases | liver histological analyses [4, 7]: no differences | serum liver enzymes [4, 7]: trends of decrease | Serum total, direct and indirect bilirubin levels ([4]; daily oral 10 or 30 mg/kg, vs Vehicle (follow-up study)): significantly reduced | serum biochemistry analytes, including serum bilirubin ([4]; daily oral 30 or 60 mg/kg (pilot study)): No significant differences | body weight, organ-to-bodyweight ratios or serum clinical chemistry ([4]; oral every three days (Days 1, 4, 7), 10 or 30 mg/kg): no significant differences | H&E-stained liver sections [5, 8]: No obvious changes | percent area of fibrosis [5, 8]: no significant difference | percent area of fibrosis (Sirius red-positive area) ([5]; 50 mg/kg daily oral gavage 28 days, p=0.0061): significantly decreased | NAS (NAFLD activity score) ([5]; 50 mg/kg daily oral gavage 28 days, p=0.0088): significant reduction
